The results in this text go back to publication PMC5375154, “Atypical protein disulfide isomerases (PDI): Comparison of the molecular and catalytic properties of poplar PDI-A and PDI-M with PDI-L1A” (PLoS ONE, 2017).

The target in one assay is T1, PDI-M (PtPDI-M) (Populus trichocarpa, UniProt B9IAL5).
T1 construct: gene POPTR_014G160000; pET-15b, His-tagged; E. coli BL21(DE3) pSBET; a°-a-b organisation
T1 sequence (B9IAL5 25-434): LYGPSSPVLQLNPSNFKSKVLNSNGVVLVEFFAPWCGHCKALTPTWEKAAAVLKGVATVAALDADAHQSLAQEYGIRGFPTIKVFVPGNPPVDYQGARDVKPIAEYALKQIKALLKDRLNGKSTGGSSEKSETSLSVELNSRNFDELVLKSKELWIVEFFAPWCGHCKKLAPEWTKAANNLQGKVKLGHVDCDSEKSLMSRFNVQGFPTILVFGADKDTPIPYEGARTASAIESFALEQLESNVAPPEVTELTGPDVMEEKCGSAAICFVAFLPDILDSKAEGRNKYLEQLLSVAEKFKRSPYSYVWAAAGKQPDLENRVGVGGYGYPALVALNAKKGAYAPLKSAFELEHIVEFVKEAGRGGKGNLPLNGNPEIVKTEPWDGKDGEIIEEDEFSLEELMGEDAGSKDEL
In words: NADPH/AtNTRB-coupled DTNB reduction, absorbance at […] nm. Format: biochemical. Particulars: 200 μM NADPH, 2 μM AtNTRB, 100 μM DTNB, 0.2 μM PDI, pH 8.0, 25°C.

The target in the next assay is T2, PDI-A (PtPDI-A) (Populus trichocarpa, UniProt B9HQP9).
T2 construct: gene POPTR_009G004500; pET-15b, His-tagged; E. coli BL21(DE3) pSBET; purified anaerobically; ca 15 kDa; dimeric and probable octameric forms; WCKHC active site
T2 sequence (B9HQP9 27-147): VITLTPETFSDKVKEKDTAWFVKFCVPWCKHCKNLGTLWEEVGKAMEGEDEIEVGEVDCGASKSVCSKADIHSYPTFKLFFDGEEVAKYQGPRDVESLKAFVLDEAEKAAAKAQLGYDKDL
In words: UV-visible absorption, iron and sulfide quantification, size-exclusion chromatography. Format: binding. Particulars: as isolated after E. coli expression, anaerobic purification; pH 8.0; cluster proposed to bridge a dimer; cluster type not definitively assigned. Background: SEC sorts molecules by how far they enter the pores of the column.

`O=C(O)c1cc(SSc2ccc([N+](=O)[O-])c(C(=O)O)c2)ccc1[N+](=O)[O-]` [DTNB]: the DTNB reduction activity entry on PDI-M (PtPDI-M) is “PDI-L1a was more efficient than PDI-M and PDI-A was inactive (Fig 2C)”.
On to `[S]1[Fe][S][Fe]1` [[Fe2S2] cluster], for which the “UV-visible absorption, iron and sulfide quantification, size-exclusion chromatog” value on PDI-A (PtPDI-A) is “results could be consistent with PDI-A binding a [Fe2S2] cluster into a dimer”.
